{
  "source": "patent US20070060605A1",
  "about": "“Compositions and methods for inhibiting platelet activation and thrombosis” (priority 2001, published 2007)",
  "key": {"[1]": {"system": "PGE1-induced cAMP levels in platelets", "assay": "Augmentation of PGE1-induced cAMP levels in platelets", "format": "cell-based, human", "settings": "no single concentration", "method": "One frequent target of anti-platelet agents is phosphodiesterase III (PDE III). […] The assay is performed as described by Liao et al., 1998, Eur J Pharmacol 349,107-114, incorporated herein by reference. Briefly, aliquots of PRP are exposed to increasing concentrations of the agent for 20 minutes. The PRP is then challenged with 1 μM PGE1 for 2 min The reaction is stopped by adding 10 mM EDTA, followed immediately by boiling for 2 min. The mixture is cooled to 4° C. and the precipitated protein is pelleted. cAMP content in the supernatant is quantitated using an enzyme immunoassay kit (Pharmacia-Amersham, N.J.) according to the instructions of the manufacturer.\nIn order to assess whether the compounds useful according to the invention might act through inhibition phosphodiesterase III, each was tested for its effect on PGE1-induced cAMP increase. Determination of platelet cAMP levels was performed as described by Liao et al., 1998, supra. Aliquots of PRP were exposed to increasing concentrations of the indicated compounds for 20 min. PRP was then challenged with 1 μM PGE1 for 2 min. The reaction was stopped with the addition of 10 mM EDTA followed immediately by boiling for 2 min. The mixture was then cooled to 4° C. and the precipitated protein was pelleted. Cyclic AMP content in the supernatant was then quantified using an enzyme immunoassay kit (Pharmacia-Amersham, N.J.) according to the instructions of the manufacturer."}, "human platelet PDE5": {"molecular_target": "T1, human platelet PDE5 (Homo sapiens, UniProt O76074)", "T1 construct": "human platelet PDE5; from tissue; host or cells: human platelets", "assay": "Phosphodiesterase inhibition, PDE5", "format": "biochemical", "settings": "up to 1 μM", "method": "(§1) Intracellular cAMP generated by adenylyl cyclase in platelets is actively hydrolyzed by phosphodiesterase. […] Human platelets express PDE2, PDE3, and PDE5. Therefore, the compound was tested for its inhibitory effect on these phosphodiesterases using methods as described in Example 3."}, "recombinant human PDE2": {"molecular_target": "recombinant human PDE2 (Homo sapiens, UniProt O00408)", "sequence (O00408 whole entry)": "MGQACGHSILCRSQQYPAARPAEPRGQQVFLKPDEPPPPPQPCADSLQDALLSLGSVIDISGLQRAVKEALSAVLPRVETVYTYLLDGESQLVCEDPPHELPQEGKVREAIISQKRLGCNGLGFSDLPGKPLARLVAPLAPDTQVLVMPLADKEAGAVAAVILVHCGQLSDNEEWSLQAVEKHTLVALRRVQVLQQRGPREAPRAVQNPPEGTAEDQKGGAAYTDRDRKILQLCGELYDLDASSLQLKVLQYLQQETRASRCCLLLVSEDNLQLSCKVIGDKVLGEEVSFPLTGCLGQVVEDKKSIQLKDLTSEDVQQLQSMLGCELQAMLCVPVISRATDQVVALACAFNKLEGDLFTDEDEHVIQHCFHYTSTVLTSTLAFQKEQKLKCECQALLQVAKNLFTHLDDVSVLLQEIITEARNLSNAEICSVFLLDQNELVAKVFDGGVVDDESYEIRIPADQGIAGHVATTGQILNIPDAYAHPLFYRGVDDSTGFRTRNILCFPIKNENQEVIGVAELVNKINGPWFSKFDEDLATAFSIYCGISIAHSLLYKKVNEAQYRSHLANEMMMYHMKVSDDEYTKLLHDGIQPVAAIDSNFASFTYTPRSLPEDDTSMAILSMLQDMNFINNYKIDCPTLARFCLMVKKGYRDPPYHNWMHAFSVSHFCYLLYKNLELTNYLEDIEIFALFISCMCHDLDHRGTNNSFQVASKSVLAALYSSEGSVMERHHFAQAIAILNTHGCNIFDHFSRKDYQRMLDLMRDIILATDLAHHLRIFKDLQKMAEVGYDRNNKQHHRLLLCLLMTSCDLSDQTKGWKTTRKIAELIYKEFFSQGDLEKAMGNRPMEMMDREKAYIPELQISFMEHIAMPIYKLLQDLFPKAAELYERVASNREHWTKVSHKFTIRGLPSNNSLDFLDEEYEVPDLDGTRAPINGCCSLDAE", "assay": "Phosphodiesterase inhibition, PDE2", "format": "biochemical", "settings": "up to 1 μM", "method": "as §1"}, "[2]": {"settings": "listed as Pyridazinone compound"}, "[3]": {"settings": "listed as pyridazinone compound"}},
  "data": [
    {"compound": "CC1CC(=O)NN=C1c1ccc(N)c([N+](=O)[O-])c1", "note": "(stereo not drawn) [6-(4-Amino-3-nitro-phenyl)-5-methyl-4,5-dihydro-2H-pyridazin-3-one]", "values": [
      {"measurement": "Effect on PGE1-stimulated cAMP levels in platelets", "setting": "[1]", "value": "augments"},
      {"measurement": "Effect on PGE1-stimulated cAMP levels in platelets", "setting": "[1]; [2]", "value": "augment"},
      {"measurement": "Inhibition of human platelet PDE5", "setting": "human platelet PDE5; [2]", "value": "No significant inhibition"},
      {"measurement": "Inhibition of human platelet PDE5", "setting": "human platelet PDE5; [3]", "value": "little inhibition"},
      {"measurement": "Inhibition of recombinant human PDE2", "setting": "recombinant human PDE2; [2]", "value": "No significant inhibition"},
      {"measurement": "Inhibition of recombinant human PDE2", "setting": "recombinant human PDE2; [3]", "value": "little inhibition"}
    ]}
  ]
}
